Key:
[1] = system: Colo320DM cells (also designated C320); assay: In vitro cytotoxicity, Alamar Blue assay, Colo320DM cells; type: cell-based; details: Table 3, value in parentheses, TFA salt unless otherwise indicated, read-out: Cell Kill in 72 HRS EC5O, Colo320DM
Experimental: (§1) The cytotoxicities of the vinca alkaloid derivatives, prepared as described in Example 1, and the cleaveable oligopeptide-vinca drug conjugates, prepared as described in Examples 2 and 2A, against a line of cells which is known to be killed by unmodified vinca drug was assessed with an Alamar Blue assay. Specifically, cell cultures of LNCap prostate tumor cells, Colo320DM cells (also designated C320), T24 bladder carcinoma cells or T47D breast carcinoma cells in 96 well plates was diluted with medium containing various concentrations of a given conjugate (final plate well volume of 200 μl). The cells were incubated for 3 days at 37° C., 20 μl of Alamar Blue is added to the assay well. The cells were further incubated and the assay plates were read on a EL-310 ELISA reader at the dual wavelengths of 570 and 600 nm at 4 and 7 hours after addition of Alamar Blue. Relative percentage viability at the various concentration of conjugate tested was then calculated versus control (no cytotoxic agent or conjugate) cultures. Unless otherwise indicated, the TFA salt of the cytotoxic agent and the acetate salt of the conjugate were tested.

[2] = system: LNCap prostate tumor cells; assay: In vitro cytotoxicity, Alamar Blue assay, LNCaP cell kill in 72 hrs; type: cell-based; details: Table 3, 3 days, TFA salt of cytotoxic agent unless otherwise indicated, read-out: LNCaP Cell Kill in 72 HRS EC5O
Experimental: as §1

Row | SMILES | EC50 [1] | EC50 [2]
1 | CC[C@]1(O)C[C@@H]2CN(CCc3c([nH]c4ccccc34)[C@@](C(=O)OC)(c3cc4c(cc3OC)N(C)[C@H]3[C@@](O)(C(=O)NC(C)C(O)C5CCCCC5)[C@H](O)[C@]5(CC)C=CCN6CC[C@]43[C@@H]65)C2)C1 (single isomer, unassigned; isomer b) [(3-cyclohexyl-3-hydroxyl-2-propylaminol)-(dAc)-VIN isomer B] | 800 nM | 1200 nM
2 | CCC1(O)CC2CN(CCc3c([nH]c4ccccc34)C(C(=O)OC)(c3cc4c(cc3OC)N(C)C3C(O)(C(=O)N5CCC(O)CC5)C(O)C5(CC)C=CCN6CCC43C65)C2)C1 (stereo not shown) [4-hydroxylpiperidine-(dAc)-VIN] | 800 nM | 200 nM
3 | CC[C@]1(O)C[C@@H]2CN(CCc3c([nH]c4ccccc34)[C@@](C(=O)OC)(c3cc4c(cc3OC)N(C)[C@H]3[C@@](O)(C(=O)NC(CO)CO)[C@H](O)[C@]5(CC)C=CCN6CC[C@]43[C@@H]65)C2)C1 [Serinol-(dAc)-VIN] | 8300 nM | 800 nM
4 | CC[C@]1(O)C[C@@H]2CN(CCc3c([nH]c4ccccc34)[C@@](C(=O)OC)(c3cc4c(cc3OC)N(C)[C@H]3[C@@](O)(C(=O)N[C@H](CO)CC5CCCCC5)[C@H](O)[C@]5(CC)C=CCN6CC[C@]43[C@@H]65)C2)C1 [L-cyclolhexyl-alaninol-(dAc)-VIN] | 2000 nM | 1000 nM
5 | CC[C@]1(O)C[C@@H]2CN(CCc3c([nH]c4ccccc34)[C@@](C(=O)OC)(c3cc4c(cc3OC)N(C)[C@H]3[C@@](O)(C(=O)NCC5(O)CCCCC5)[C@H](O)[C@]5(CC)C=CCN6CC[C@]43[C@@H]65)C2)C1 [1-hydroxylcyclohexylmethyamino-(dAc)-VIN] | 15800 nM | 500 nM
6 | CC[C@]1(O)C[C@@H]2CN(CCc3c([nH]c4ccccc34)[C@@](C(=O)OC)(c3cc4c(cc3OC)N(C)[C@H]3[C@@](O)(C(=O)N5CCCC(O)C5)[C@H](O)[C@]5(CC)C=CCN6CC[C@]43[C@@H]65)C2)C1 (single isomer, unassigned; isomer a) [3-hydroxyl-piperidine-(dAc)-VIN, isomer A] | 500 nM | 500 nM
7 | CC[C@]1(O)C[C@@H]2CN(CCc3c([nH]c4ccccc34)[C@@](C(=O)OC)(c3cc4c(cc3OC)N(C)[C@H]3[C@@](O)(C(=O)N5CCCC(O)C5)[C@H](O)[C@]5(CC)C=CCN6CC[C@]43[C@@H]65)C2)C1 (single isomer, unassigned; isomer b) [3-hydroxyl-piperidine-(dAc)-VIN, isomer B] |  | 500 nM
8 | CC[C@]1(O)C[C@@H]2CN(CCc3c([nH]c4ccccc34)[C@@](C(=O)OC)(c3cc4c(cc3OC)N(C)[C@H]3[C@@](O)(C(=O)N5CCC(O)C5)[C@H](O)[C@]5(CC)C=CCN6CC[C@]43[C@@H]65)C2)C1 (stereo partly shown) [3-hydroxylpyrrolidine-(dAc)-VIN] | 1500 nM | 200 nM
9 | CCC(CO)NC(=O)[C@@]1(O)[C@H](O)[C@]2(CC)C=CCN3CC[C@@]4(c5cc([C@@]6(C(=O)OC)C[C@H]7CN(CCc8c6[nH]c6ccccc86)C[C@](O)(CC)C7)c(OC)cc5N(C)[C@@H]14)[C@@H]32 (stereo partly shown) [2-Aminobutanol-(dAc)-VIN] | 7100 nM | 2900 nM
10 | CC[C@]1(O)C[C@@H]2CN(CCc3c([nH]c4ccccc34)[C@@](C(=O)OC)(c3cc4c(cc3OC)N(C)[C@H]3[C@@](O)(C(=O)N[C@H](CO)C(C)C)[C@H](O)[C@]5(CC)C=CCN6CC[C@]43[C@@H]65)C2)C1 [L-Valinol-(dAc)-VIN] | 800 nM | 400 nM
11 | CC[C@]1(O)C[C@@H]2CN(CCc3c([nH]c4ccccc34)[C@@](C(=O)OC)(c3cc4c(cc3OC)N(C)[C@H]3[C@@](O)(C(=O)NC(c5ccccc5)C(O)c5ccccc5)[C@H](O)[C@]5(CC)C=CCN6CC[C@]43[C@@H]65)C2)C1 (stereo partly shown) [1,2-diPhenylethanolamino-(dAc)-VIN] | 8900 nM | 2200 nM
12 | CCC1(O)CC2CN(CCc3c([nH]c4ccccc34)C(C(=O)OC)(c3cc4c(cc3OC)N(C)C3C(O)(C(=O)NC(C)C(O)c5ccccc5)C(O)C5(CC)C=CCN6CCC43C65)C2)C1 (single isomer, unassigned; isomer a) [norephedrine-(dAc)-VIN, isomer A] | 3000 nM | 3000 nM
13 | CC[C@]1(O)C[C@@H]2CN(CCc3c([nH]c4ccccc34)[C@@](C(=O)OC)(c3cc4c(cc3OC)N(C)[C@H]3[C@@](O)(C(=O)N[C@H](CO)CC(C)C)[C@H](O)[C@]5(CC)C=CCN6CC[C@]43[C@@H]65)C2)C1 [L-leucinol-(dAc)-VIN] | 2000 nM | 700 nM
14 | CC[C@]1(O)C[C@@H]2CN(CCc3c([nH]c4ccccc34)[C@@](C(=O)OC)(c3cc4c(cc3OC)N(C)[C@H]3[C@@](O)(C(=O)NC5CCCCC5O)[C@H](O)[C@]5(CC)C=CCN6CC[C@]43[C@@H]65)C2)C1 (single isomer, unassigned; isomer b) [(trans-2-hydroxyl)cyclohexylamino-(dAc)-VIN, Isomer B] | 800 nM | 800 nM
15 | CC[C@]1(O)C[C@@H]2CN(CCc3c([nH]c4ccccc34)[C@@](C(=O)OC)(c3cc4c(cc3OC)N(C)[C@H]3[C@@](O)(C(=O)N[C@H](CO)Cc5ccccc5)[C@H](O)[C@]5(CC)C=CCN6CC[C@]43[C@@H]65)C2)C1 [L-phenylalaninol-(dAc)-VIN] | 3500 nM | 500 nM
16 | CC[C@]1(O)C[C@@H]2CN(CCc3c([nH]c4ccccc34)[C@@](C(=O)OC)(c3cc4c(cc3OC)N(C)[C@H]3[C@@](O)(C(=O)NCC(C)O)[C@H](O)[C@]5(CC)C=CCN6CC[C@]43[C@@H]65)C2)C1 (stereo partly shown) [2-hydroxylpropylamino-(dAc)-VIN] | 2900 nM | 1200 nM
17 | CC[C@]1(O)C[C@@H]2CN(CCc3c([nH]c4ccccc34)[C@@](C(=O)OC)(c3cc4c(cc3OC)N(C)[C@H]3[C@@](O)(C(=O)NC(C)C(O)C5CCCCC5)[C@H](O)[C@]5(CC)C=CCN6CC[C@]43[C@@H]65)C2)C1 (single isomer, unassigned; isomer a) [(3-cyclohexyl-3-hydroxyl-2-propylaminol)-(dAc)-VIN isomer A] | 500 nM | 300 nM
18 | CCOC(=O)[C@H](CC1CC1)NC(=O)[C@@]1(O)[C@H](O)[C@]2(CC)C=CCN3CC[C@@]4(c5cc([C@@]6(C(=O)OC)C[C@H]7CN(CCc8c6[nH]c6ccccc86)C[C@](O)(CC)C7)c(OC)cc5N(C)[C@@H]14)[C@@H]32 [L-cyclopropyl-alainine-OEt-(dAc)-VIN] | 1000 nM | 1400 nM
19 | CCC1(O)CC2CN(CCc3c([nH]c4ccccc34)C(C(=O)OC)(c3cc4c(cc3OC)N(C)C3C(O)(C(=O)NC(C)C(O)c5ccccc5)C(O)C5(CC)C=CCN6CCC43C65)C2)C1 (single isomer, unassigned; isomer b) [norephedrine-(dAc)-VIN, isomer B] | 400 nM | 200 nM
20 | CC[C@]1(O)C[C@@H]2CN(CCc3c([nH]c4ccccc34)[C@@](C(=O)OC)(c3cc4c(cc3OC)N(C)[C@H]3[C@@](O)(C(=O)OC)[C@H](O)[C@]5(CC)C=CCN6CC[C@]43[C@@H]65)C2)C1 [(dAc)-VINBLASTINE, desacetylvinblastine, reference compound] | 500 nM | 300 nM
21 | CCC1(O)CC2CN(CCc3c([nH]c4ccccc34)C(C(=O)OC)(c3cc4c(cc3OC)N(C)C3C(O)(C(=O)NC(CO)Cc5c[nH]c6ccccc56)C(O)C5(CC)C=CCN6CCC43C65)C2)C1 (stereo not shown) [tryptophanol-(dAc)-VIN] | 2900 nM | 600 nM
22 | CCC1(O)CC2CN(CCc3c([nH]c4ccccc34)C(C(=O)OC)(c3cc4c(cc3OC)N(C)C3C(O)(C(=O)NC(C)C(O)c5cccc(OC)c5)C(O)C5(CC)C=CCN6CCC43C65)C2)C1 (stereo not shown) [3-methoxy-norephedrine-(dAc)-VIN] | 5100 nM | 1800 nM
23 | CC[C@]1(O)C[C@@H]2CN(CCc3c([nH]c4ccccc34)[C@@](C(=O)OC)(c3cc4c(cc3OC)N(C)[C@H]3[C@@](O)(C(=O)NC5CCCCC5O)[C@H](O)[C@]5(CC)C=CCN6CC[C@]43[C@@H]65)C2)C1 (single isomer, unassigned; isomer a) [(trans-2-hydroxyl)cyclohexylamine-(dAc)-VIN, Isomer A] | 200 nM | 100 nM
24 | CC[C@H](C)[C@@H](CO)NC(=O)[C@@]1(O)[C@H](O)[C@]2(CC)C=CCN3CC[C@@]4(c5cc([C@@]6(C(=O)OC)C[C@H]7CN(CCc8c6[nH]c6ccccc86)C[C@](O)(CC)C7)c(OC)cc5N(C)[C@@H]14)[C@@H]32 [L-isoleucinol-(dAc)-VIN] | 1700 nM | 900 nM
25 | CC[C@]1(O)C[C@@H]2CN(CCc3c([nH]c4ccccc34)[C@@](C(=O)OC)(c3cc4c(cc3OC)N(C)[C@H]3[C@@](O)(C(=O)NC(CO)c5ccccc5)[C@H](O)[C@]5(CC)C=CCN6CC[C@]43[C@@H]65)C2)C1 (stereo partly shown) [Phenylglyinol-(dAc)-VIN] | 4800 nM | 700 nM

Reference: US20020103136A1, “Conjugates useful in the treatment of prostate cancer” (priority 1998, published 2002)
